The values below come from US20260055065A1, “PYRIDAZINONE COMPOUNDS WHICH MODULATE MUTANT PROTEINS FOR TREATING RESPIRATORY DISEASES” (The Hospital for Sick Children, priority 2022, published 2026).

Holding throughout (assay type): cell-based
The target in one experiment is T1, F508del-CFTR (Homo sapiens, UniProt P13569, DEL508-508).
T1 construct: F508del-CFTR was endogenously expressed in CFBE41o^− cells; endogenous in cells; host or cells: CFBE41o-
The experiment in a line: Dose response, potentiation of forskolin-activated F508del-CFTR chloride channel activity in CFBE41o- cells (fluorescence membrane potential assay). Conditions: low temperature (27 degrees Celsius) correction, read-out: potency in potentiating cyclic AMP dependent F508del-CFTR chloride channel activity. The protocol: In these studies, F508del-CFTR was endogenously expressed in CFBE41o^− cells and it's trafficking defect corrected by low temperature (27 degrees Celsius) incubation. The fold increase in cyclic AMP dependent F508del-CFTR mediated chloride channel activity induced by potentiator treatment was determined using the fluorescence-based, membrane potential difference assay previously described.

Experiment [1] deals with primary differentiated human bronchial epithelial cultures. The experiment in a line: Bead tracking assay of mucociliary movement, primary bronchial epithelial cultures exposed to cigarette smoke extract. The settings on record: for mucostasis / bead velocity in CSE-treated cultures: CSE 2%, compound 1 μM for 24 hours, forskolin 10 μM. The protocol:
Compound 11 was tested in an in-vitro model of COPD. In this model, primary differentiated human bronchial epithelial cultures were exposed to cigarette smoke extract (4,5). Exposure to cigarette smoke extract (CSE) led to mucostasis and slowed mucociliary movement (FIG. 1(A) and (B)). […] Changes in mucociliary movement were determined as in our previous publication (7), i.e., by tracking the speed of fluorescent beads added to the surface of the airway cultures. The relative rescue effect of Compound 11 compared favourably relative to the competitor, the FDA approved CFTR potentiator marketed as Ivacaftor (VX-770).
Mature bronchial epithelial cultures, seeded on 24-well transwell inserts, derived from non-smoker donors of variable ages were received from the University of Iowa and cultured at air-liquid interface (ALI) using UltraG medium. A total of 6 inserts per donor were cultured, and all inserts from a single donor were selected to receive chronic drug and toxin treatment. Ahead of chronic treatment, cultures were subject to mucomist to reduce the volume and viscosity of the mucous layer ahead of imaging. Cultures were first washed twice with 200 uL HBSS (Wisent) applied apically to the transwell, each wash for 10 minutes at 37 degrees and 5% CO2. Cells were then incubated with 10 μM N-acetyl-cysteine (source?) dissolved in HBSS (Wisent) for 30 minutes, followed by a final HBSS wash as described previously. The toxin treatment consisted of either cigarette smoke extract (CSE) prepared in 100% DMSO (University of Alabama at Birmingham), dissolved at a concentration of 2% (v/v) in UltraG medium, with an equivalent concentration of DMSO alone serving as a control. The chronic drug treatment was co-applied with the toxin treatment, which included either VX-770 (Vertex) or SK-POT, aka Compound 11 (both prepared in 100% DMSO) dissolved in UltraG medium at a final concentration of 1 μm. There were a total of 6 chronic treatments, with each of the 6 inserts per donor receiving a different chronic treatment. Bronchial epithelia were incubated with the chronic treatment, applied apically, for 24 hours at 37 degrees C. and 5% CO2. After 24 hours, green fluorescent microspheres (brand?) dissolved in HBSS at a concentration of 0.05% (v/v) were applied apically; cultures were incubated with the microspheres for 45 minutes. The toxin and potentiator treatments were carried forth into the microsphere solution.
Inserts were then imaged at room temperature by epifluorescence microscopy (Zeiss or Olympus). The basic replicate of the assay consists of a 5-second video captured in the green channel and 40-60 frames per second; Z-position was adjusted ahead of each video to ensure beads in the airway surface liquid stratum immediately above the cilia were being captured. 5 videos were captured per insert/conditions, representing the centre and 4 corners of the insert. 2 sets of 5 videos were captured per insert/condition: one at baseline, and one 20 minutes following CFTR stimulation by forskolin at a concentration of 10 μM. Inserts were incubated at room temperature after forskolin addition.
Videos were captured using Volocity software and exported as one TIF file per frame. Frames were then re-compiled into complete videos using Arivis 4D software. Using an algorithm as previously described in Wu et al. 2017, microspheres were highlighted by adjusting two parameters: fluorescence intensity and diameter. […]

A further experiment has as its target Wt-CFTR (Homo sapiens, UniProt P13569). Description: Ussing chamber short circuit current, primary human bronchial epithelial cultures. The settings on record: 1 μM, after forskolin 100 nM. The protocol:
The impact of SK-POT (compound 11) in potentiating Wt-CFTR mediated transepithelial chloride conduction in primary human bronchial epithelial cultures was then tested.

The next experiment concerns the target T2, CFTR (Mustela putorius furo, UniProt Q07E16).
T2 construct: primary bronchial epithelial cultures prepared from adult ferret trachea; from tissue; host or cells: primary bronchial epithelial cultures from adult ferret trachea
Description: Ussing chamber, primary bronchial epithelial cultures from adult ferret trachea. Conditions: 1 μM, after forskolin 100 nM. How it is done:
Student's “t” test was conducted.

Entries after “also recorded” stand apart in the source; their conditions may differ.

T1 sequence (P13569 with tags, fused parts or gaps DEL508-508): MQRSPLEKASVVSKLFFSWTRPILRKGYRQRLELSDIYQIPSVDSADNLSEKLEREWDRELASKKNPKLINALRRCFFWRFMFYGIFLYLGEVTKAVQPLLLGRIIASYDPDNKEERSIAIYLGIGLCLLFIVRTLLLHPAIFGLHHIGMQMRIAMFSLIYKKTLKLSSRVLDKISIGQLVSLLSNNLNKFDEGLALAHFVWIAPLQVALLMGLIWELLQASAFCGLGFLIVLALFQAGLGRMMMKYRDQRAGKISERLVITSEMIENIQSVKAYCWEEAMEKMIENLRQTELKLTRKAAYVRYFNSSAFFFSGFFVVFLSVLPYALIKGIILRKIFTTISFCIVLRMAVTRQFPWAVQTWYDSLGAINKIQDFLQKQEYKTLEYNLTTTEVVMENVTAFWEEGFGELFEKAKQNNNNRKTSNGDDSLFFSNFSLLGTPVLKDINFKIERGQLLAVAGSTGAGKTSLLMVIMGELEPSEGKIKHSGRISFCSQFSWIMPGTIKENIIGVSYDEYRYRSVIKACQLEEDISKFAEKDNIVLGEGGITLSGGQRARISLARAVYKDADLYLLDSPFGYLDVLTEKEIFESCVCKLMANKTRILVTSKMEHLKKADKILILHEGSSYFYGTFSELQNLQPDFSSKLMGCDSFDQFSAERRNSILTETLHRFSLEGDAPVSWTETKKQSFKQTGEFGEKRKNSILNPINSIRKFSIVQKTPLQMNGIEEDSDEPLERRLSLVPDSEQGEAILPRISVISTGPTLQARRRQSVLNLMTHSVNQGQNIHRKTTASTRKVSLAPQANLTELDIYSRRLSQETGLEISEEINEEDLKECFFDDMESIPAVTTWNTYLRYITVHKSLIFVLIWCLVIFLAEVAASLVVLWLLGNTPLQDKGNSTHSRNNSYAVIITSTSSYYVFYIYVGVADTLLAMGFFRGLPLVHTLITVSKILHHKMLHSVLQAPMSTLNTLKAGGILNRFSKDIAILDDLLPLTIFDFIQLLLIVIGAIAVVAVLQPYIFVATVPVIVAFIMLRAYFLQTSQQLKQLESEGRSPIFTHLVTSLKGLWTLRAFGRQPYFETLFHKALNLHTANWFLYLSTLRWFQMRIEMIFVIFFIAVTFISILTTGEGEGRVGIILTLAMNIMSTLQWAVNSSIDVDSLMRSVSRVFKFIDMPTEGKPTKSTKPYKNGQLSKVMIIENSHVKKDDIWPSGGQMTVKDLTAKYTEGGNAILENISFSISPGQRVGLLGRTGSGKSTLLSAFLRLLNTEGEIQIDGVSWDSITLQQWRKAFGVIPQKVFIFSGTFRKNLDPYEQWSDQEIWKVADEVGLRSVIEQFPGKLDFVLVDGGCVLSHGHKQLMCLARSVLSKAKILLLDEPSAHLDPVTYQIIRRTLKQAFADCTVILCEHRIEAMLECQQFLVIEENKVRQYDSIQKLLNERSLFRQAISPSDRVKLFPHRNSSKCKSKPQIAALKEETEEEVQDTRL
T2 sequence (Q07E16 whole entry): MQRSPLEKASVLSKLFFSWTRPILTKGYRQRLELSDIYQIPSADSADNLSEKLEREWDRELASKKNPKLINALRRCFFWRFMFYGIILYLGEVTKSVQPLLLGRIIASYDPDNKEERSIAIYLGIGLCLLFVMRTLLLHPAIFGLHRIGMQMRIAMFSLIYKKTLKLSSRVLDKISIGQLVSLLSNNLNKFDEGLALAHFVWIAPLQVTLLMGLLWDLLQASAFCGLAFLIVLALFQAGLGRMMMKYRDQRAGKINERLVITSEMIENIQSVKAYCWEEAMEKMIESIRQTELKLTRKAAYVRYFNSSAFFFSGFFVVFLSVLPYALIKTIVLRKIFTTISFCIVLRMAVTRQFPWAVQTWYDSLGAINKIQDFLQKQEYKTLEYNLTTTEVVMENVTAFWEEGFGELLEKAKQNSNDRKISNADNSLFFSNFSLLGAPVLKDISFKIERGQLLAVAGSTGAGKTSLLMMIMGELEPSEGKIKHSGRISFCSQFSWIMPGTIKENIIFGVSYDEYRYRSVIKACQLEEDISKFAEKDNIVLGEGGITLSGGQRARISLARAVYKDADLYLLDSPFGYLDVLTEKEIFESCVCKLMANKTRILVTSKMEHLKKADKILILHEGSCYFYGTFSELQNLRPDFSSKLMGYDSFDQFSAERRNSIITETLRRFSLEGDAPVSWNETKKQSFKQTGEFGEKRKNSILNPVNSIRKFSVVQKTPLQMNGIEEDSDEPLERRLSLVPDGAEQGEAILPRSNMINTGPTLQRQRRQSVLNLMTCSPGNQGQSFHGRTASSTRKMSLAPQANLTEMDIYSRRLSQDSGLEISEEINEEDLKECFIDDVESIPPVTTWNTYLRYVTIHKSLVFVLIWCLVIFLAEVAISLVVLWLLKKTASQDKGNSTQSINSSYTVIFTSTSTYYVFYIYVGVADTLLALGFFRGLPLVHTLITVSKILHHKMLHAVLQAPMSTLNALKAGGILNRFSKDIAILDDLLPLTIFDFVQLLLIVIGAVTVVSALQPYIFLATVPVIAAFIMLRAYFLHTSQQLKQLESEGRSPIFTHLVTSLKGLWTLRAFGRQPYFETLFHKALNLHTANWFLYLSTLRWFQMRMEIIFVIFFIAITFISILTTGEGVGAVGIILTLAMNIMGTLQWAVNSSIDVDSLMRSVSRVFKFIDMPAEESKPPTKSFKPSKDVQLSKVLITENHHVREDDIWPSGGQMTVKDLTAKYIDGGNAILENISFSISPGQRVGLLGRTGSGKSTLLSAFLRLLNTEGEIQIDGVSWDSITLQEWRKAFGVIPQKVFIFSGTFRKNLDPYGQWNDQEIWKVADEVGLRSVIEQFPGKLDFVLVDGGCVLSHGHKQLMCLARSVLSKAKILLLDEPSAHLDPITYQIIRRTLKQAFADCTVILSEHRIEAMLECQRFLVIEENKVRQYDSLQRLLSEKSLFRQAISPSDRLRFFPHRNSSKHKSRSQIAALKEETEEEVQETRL
Wt-CFTR, sequence (P13569 whole entry): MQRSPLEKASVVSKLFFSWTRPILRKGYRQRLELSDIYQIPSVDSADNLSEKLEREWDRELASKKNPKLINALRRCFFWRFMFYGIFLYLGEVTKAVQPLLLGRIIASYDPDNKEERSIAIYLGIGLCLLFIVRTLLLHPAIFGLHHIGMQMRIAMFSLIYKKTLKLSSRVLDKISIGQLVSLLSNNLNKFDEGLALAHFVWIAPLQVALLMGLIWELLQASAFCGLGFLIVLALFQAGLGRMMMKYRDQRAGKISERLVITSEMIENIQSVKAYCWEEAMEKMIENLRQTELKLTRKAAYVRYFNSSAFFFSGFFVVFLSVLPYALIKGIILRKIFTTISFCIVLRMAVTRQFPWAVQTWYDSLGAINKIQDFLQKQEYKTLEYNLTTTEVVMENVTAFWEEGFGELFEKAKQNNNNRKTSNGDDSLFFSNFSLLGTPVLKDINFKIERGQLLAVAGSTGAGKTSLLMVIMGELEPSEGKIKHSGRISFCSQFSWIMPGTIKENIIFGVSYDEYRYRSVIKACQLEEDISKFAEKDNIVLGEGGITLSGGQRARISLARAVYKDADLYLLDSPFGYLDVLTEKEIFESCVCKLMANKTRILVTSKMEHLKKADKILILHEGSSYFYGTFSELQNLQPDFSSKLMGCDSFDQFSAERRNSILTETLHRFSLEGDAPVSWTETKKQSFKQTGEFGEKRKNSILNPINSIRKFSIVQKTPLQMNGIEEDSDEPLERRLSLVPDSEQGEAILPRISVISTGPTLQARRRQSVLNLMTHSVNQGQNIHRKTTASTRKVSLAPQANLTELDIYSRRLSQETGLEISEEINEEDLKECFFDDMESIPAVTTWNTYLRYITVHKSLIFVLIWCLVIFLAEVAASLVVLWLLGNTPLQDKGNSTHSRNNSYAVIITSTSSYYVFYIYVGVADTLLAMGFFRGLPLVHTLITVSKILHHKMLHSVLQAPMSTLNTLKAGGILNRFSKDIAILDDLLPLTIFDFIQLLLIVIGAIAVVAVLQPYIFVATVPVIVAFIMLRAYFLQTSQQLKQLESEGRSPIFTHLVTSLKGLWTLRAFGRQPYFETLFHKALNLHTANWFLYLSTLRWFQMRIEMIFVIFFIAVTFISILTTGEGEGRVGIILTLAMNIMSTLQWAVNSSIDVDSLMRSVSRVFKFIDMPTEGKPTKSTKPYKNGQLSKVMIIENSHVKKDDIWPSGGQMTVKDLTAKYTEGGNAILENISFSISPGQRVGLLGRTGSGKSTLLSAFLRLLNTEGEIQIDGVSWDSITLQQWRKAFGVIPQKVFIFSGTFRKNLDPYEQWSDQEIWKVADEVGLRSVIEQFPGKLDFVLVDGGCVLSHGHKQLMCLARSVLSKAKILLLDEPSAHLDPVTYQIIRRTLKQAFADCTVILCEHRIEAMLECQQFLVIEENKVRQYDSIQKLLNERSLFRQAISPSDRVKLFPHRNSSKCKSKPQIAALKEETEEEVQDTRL

With `CC(C)(C)c1ccc(-n2nc(-c3ccc(F)cc3)c(N3CCCCC3)c(N)c2=O)cc1O` [Compound 11, 4-amino-2-(4-(tert-butyl)-3-hydroxyphenyl)-6-(4-fluorophenyl)-5-(piperidin-1-yl)pyridazin-3(2H)-one], the EC50 on F508del-CFTR turned out to be 5 nM. Besides, the results for the “mucostasis / bead velocity in CSE-treated cultures” value in experiment [1] and in experiment [1] (listed as SK-POT) were “prevented the mucostasis induced by cigarette smoke extract; also recorded: rescued to control values” and “significant increase in bead velocity”, respectively. The “bead velocity under control conditions” value in experiment [1] (no CSE, compound added with vehicle for 24 hours) is “Neither VX-770 nor Compound 11 had any impact on bead velocity”. The “forskolin activated short circuit currents mediated by Wt-CFTR” value on Wt-CFTR was “potentiated”. Also, the “CFTR channel function in ferret bronchial tissue” value on CFTR is given as “effective in augmenting CFTR channel function”.
